Results from PubChem BioAssay (NCI).
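Growth conditions: 96-well plates. Treatment: test compound, 48 hours, 5 concentrations. Analysis: linear interpolation between bracketing concentrations; unreached endpoints set to highest concentration. The concentration for 50% growth inhibition is given as GI50. TGI marks complete inhibition of growth.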

Legend:
Experiment in all cases: NCI anticancer screen, dose series, 48 h
[1] = test system: SK-OV-3 ovarian
[2] = test system: COLO 205 colon
[3] = test system: UACC-62 melanoma
[4] = test system: MDA-MB-231 breast
[5] = test system: RPMI-8226 leukemia
[6] = test system: HCT-116 colon
[7] = test system: SW-620 colon
[8] = test system: BT-549 breast
[9] = test system: NCI-H460 lung
[10] = test system: HL-60(TB) leukemia
[11] = test system: SK-MEL-2 melanoma
[12] = test system: MCF7 breast
[13] = test system: MALME-3M melanoma
[14] = test system: CCRF-CEM leukemia
[15] = test system: HOP-62 NSCLC
[16] = test system: DU-145 prostate
[17] = test system: HS 578T breast
[18] = test system: T-47D breast
[19] = test system: MDA-MB-435
[20] = test system: PC-3 prostate
[21] = test system: CAKI-1 renal
[22] = test system: SR leukemia
[23] = test system: SNB-75 CNS
[24] = test system: EKVX NSCLC
[25] = test system: MDA-MB-468 breast
[26] = test system: SN12C renal
[27] = test system: HT29 colon
[28] = test system: NCI-H522 lung
[29] = test system: SK-MEL-28 melanoma
[30] = test system: A498 renal
[31] = test system: OVCAR-4 ovarian
[32] = test system: M14 melanoma
[33] = test system: HCC-2998 colon
[34] = test system: UACC-257 melanoma
[35] = test system: SF-539 CNS
[36] = test system: SF-295 CNS
[37] = test system: NCI-H226 lung
[38] = test system: OVCAR-5 ovarian
[39] = test system: HCT-15 colon
[40] = test system: HOP-92 NSCLC
[41] = test system: NCI-H23 lung
[42] = test system: KM12 colon
[43] = test system: K-562 leukemia
[44] = test system: IGROV1 ovarian
[45] = test system: SF-268 CNS
[46] = test system: OVCAR-3 ovarian
[47] = test system: 786-0 renal
[48] = test system: SNB-19 CNS
[49] = test system: A549 NSCLC
[50] = test system: MOLT-4 leukemia
[51] = test system: OVCAR-8 ovarian
[52] = test system: TK-10 renal
[53] = test system: SK-MEL-5 melanoma
[54] = test system: LOX IMVI melanoma
[55] = test system: U251 CNS
[56] = test system: ACHN renal
[57] = test system: UO-31 renal
[58] = test system: RXF 393 renal

`COc1cccc(NC(=O)c2ccc(NC(=O)CCl)s2)c1` showed a GI50 [1] of 27 µM, a TGI [1] of 66.5 µM and a GI50 [2] of 27.9 µM. The TGI [2] was 70.8 µM, the GI50 [3] was 15.3 µM and the TGI [3] was 29.2 µM. It also gave a GI50 [4] of 15.6 µM, a TGI [4] of 32.6 µM and a GI50 [5] of 18.7 µM. For the same compound, the TGI [5] was 46.8 µM, the GI50 [6] was 22.4 µM and the TGI [6] was 88.9 µM. The GI50 [7] was 13.4 µM, the TGI [7] was 30.5 µM and the GI50 [8] was 12.2 µM. It also gave a TGI [8] of 29.1 µM, a GI50 [9] of 20.8 µM and a TGI [9] of 45.2 µM. The GI50 [10] was 17.4 µM, the TGI [10] was 99 µM and the GI50 [11] was 28.6 µM. The TGI [11] was over 100 µM, the GI50 [12] was 20.1 µM and the TGI [12] was 66.4 µM. For the same compound, the GI50 [13] was 12.5 µM, the TGI [13] was 28.5 µM and the GI50 [14] was 6.87 µM. The TGI [14] was 51.2 µM, the GI50 [15] was 56.7 µM and the TGI [15] was over 100 µM. The GI50 [16] was 36.4 µM, the TGI [16] was over 100 µM and the GI50 [17] was 20.3 µM. It also gave a TGI [17] of 61.1 µM, a GI50 [18] of 34.5 µM and a TGI [18] of over 100 µM. It also gave a GI50 [19] of 18.6 µM, a TGI [19] of 60.9 µM and a GI50 [20] of 14.9 µM. For the same compound, the TGI [20] was 34.9 µM, the GI50 [21] was 16.1 µM and the TGI [21] was 42 µM. For the same compound, the GI50 [22] was 4.92 µM, the TGI [22] was 56.2 µM and the GI50 [23] was 11.7 µM. It also gave a TGI [23] of over 100 µM, a GI50 [24] of 26.4 µM and a TGI [24] of over 100 µM. It also gave a GI50 [25] of 14.2 µM, a TGI [25] of 30.6 µM and a GI50 [26] of 16.1 µM. The TGI [26] was 33.2 µM, the GI50 [27] was 20.3 µM and the TGI [27] was 44.2 µM. The GI50 [28] was 13.9 µM, the TGI [28] was 30.8 µM and the GI50 [29] was 20.6 µM. The TGI [29] was 52.6 µM, the GI50 [30] was over 100 µM and the TGI [30] was over 100 µM. It also gave a GI50 [31] of 39.2 µM, a TGI [31] of over 100 µM and a GI50 [32] of 16.3 µM. The TGI [32] was 39.4 µM, the GI50 [33] was 47.8 µM and the TGI [33] was over 100 µM. It also gave a GI50 [34] of 55.3 µM, a TGI [34] of over 100 µM and a GI50 [35] of 16.7 µM. The TGI [35] was 31 µM, the GI50 [36] was 46.6 µM and the TGI [36] was over 100 µM. The GI50 [37] was 15.8 µM, the TGI [37] was 39.2 µM and the GI50 [38] was 21 µM. It also gave a TGI [38] of 46.8 µM, a GI50 [39] of 11.3 µM and a TGI [39] of 40.5 µM. It also gave a GI50 [40] of 15.4 µM, a TGI [40] of 34.7 µM and a GI50 [41] of 17.2 µM. It also gave a TGI [41] of 35.5 µM, a GI50 [42] of 21.2 µM and a TGI [42] of 54.1 µM. For the same compound, the GI50 [43] was 16.4 µM, the TGI [43] was over 100 µM and the GI50 [44] was 16.8 µM. It also gave a TGI [44] of 35.5 µM, a GI50 [45] of 25 µM and a TGI [45] of over 100 µM. It also gave a GI50 [46] of 16.7 µM, a TGI [46] of 33.8 µM and a GI50 [47] of 17.1 µM. The TGI [47] was 33 µM, the GI50 [48] was 21.8 µM and the TGI [48] was 65.8 µM. The GI50 [49] was 21.7 µM, the TGI [49] was 53.9 µM and the GI50 [50] was 12.5 µM. It also gave a TGI [50] of 55.8 µM, a GI50 [51] of 18.5 µM and a TGI [51] of 39.3 µM. It also gave a GI50 [52] of over 100 µM, a TGI [52] of over 100 µM and a GI50 [53] of 17.4 µM. It also gave a TGI [53] of 34.6 µM, a GI50 [54] of 11.4 µM and a TGI [54] of 25.1 µM. The GI50 [55] was 16.8 µM, the TGI [55] was 31.5 µM and the GI50 [56] was 17.4 µM. It also gave a TGI [56] of 35.9 µM, a GI50 [57] of 13.7 µM and a TGI [57] of 27.6 µM. The GI50 [58] was 13.6 µM and the TGI [58] was 36.9 µM.
